In patent publication US4337256A, “1-Phenyl isoquinoline-5-acetic acid compounds and analgesic compositions thereof” (priority 1978, dated 1982):
Read-outs that look alike come from different tables or passages of the source.

Experiments:
stomach mucosal membrane = test: Ulcerogenic activity: gastric ulceration; type: in vivo, male Wistar rats; conditions: p.o., 4 h
Procedure: Each of the test compounds was orally administered by the same way as in the test on anti-inflammatory activity to male Wistar rats weighing 120 to 150 g which had been fasted for 24 hours. Four hours later, they were killed with ether.

[1] = test system: writhings (acetic acid) in the mice; test: Analgesic activity: acetic acid writhing test; type: in vivo, male mice (ddY); conditions: Mus musculus, po, read-out: ED50 (analgesic, writhing inhibition)
Procedure: Male mice (ddY) weighing 18 to 22 g were used in groups each consisting of 10 mice. Each of the compounds was suspended in an aqueous solution of 0.5% of carboxymethyl cellulose and 2.0% of Tween 80, and administered orally through a tube. After one hour from the administration, 0.6% acetic acid was administered intraperitoneally in an amount of 0.1 ml per 10 g of body weight, and the number of writhings which occurred in the mice during a period of 20 minutes after the administration was measured. The percent inhibition was calculated from the following equation, and the ED50 values of the test compounds were calculated from the percent inhibition in accordance with the method of Litchfield-Wilcoxon.

[2] = test system: left hind paw edema (carrageenin); test: Anti-inflammatory activity: carrageenin-induced left hind paw edema; type: in vivo, male Wistar rats; conditions: Rattus norvegicus, po, read-out: Percent inhibition (edema)
Procedure: Male Wistar rats weighing 120 to 150 g which had been fasted for 24 hours were used in groups each consisting of 5 rats. In each group, the volumes of the left hind paw were measured by a volume differential meter (made by Ugo Basile Company), and each of the test compounds was suspended in an aqueous solution of 0.5% of carboxymethyl cellulose and 2.0% of Tween 80, and administered orally through a tube. After one hour from the administration, 0.1 ml of a 1% suspension of carrageenin in distilled water was subcutaneously injected into the plantar tissues of the left hind paw. Three hours later, the volumes of the left hind paw were again measured. The increase in volume of the left hind paw of each rat in each group (the volume of edema) was measured.

Toxicity test (LD50) = conditions: mouse, in vivo; oral, observed for 1 week; parentheses show 95% confidence limits
Procedure: Each of the test compounds was suspended in a physiological saline solution having dissolved therein 2% of Tween 80, and orally administered through a tube to groups of ddY mice (male: 19 to 22 g) each group consisting of 6 mice. The mice were then observed for 1 week. The LD50 values were calculated from the lethality in accordance with the method of Litchfield-Wilcoxon.

digestive organs = conditions: known agents, statement in words; cited from earlier work
[3] = p.o. 1 h before 0.6% acetic acid i.p., parentheses show 95% confidence limits
[4] = 1 mg/kg, p.o., 1 h before carrageenin, measured 3 h later
[5] = 3 mg/kg, p.o., 1 h before carrageenin, measured 3 h later
[6] = 10 mg/kg, p.o., 1 h before carrageenin, measured 3 h later
[7] = p.o., 1 h before carrageenin, measured 3 h later

## CC(C(=O)O)c1cccc2c(-c3ccc(Cl)cc3)nccc12 (centres unmarked) [F, 2-[1-(4-chlorophenyl)isoquinolin-5-yl]propionic acid]
Stomach mucosal membrane; 10 mg/kg
  Gastric ulceration: bleeding at the mucosal membrane: 1/5
  Gastric ulceration: damage beneath the mucosal membrane: 0/5
Stomach mucosal membrane; 30 mg/kg
  Gastric ulceration: bleeding at the mucosal membrane: 2/5
  Gastric ulceration: damage beneath the mucosal membrane: 2/5
[1]; [3]
  ED50: 3.2 mg/kg
[2]; [4]
  inhibition in vivo at 1 mg/kg: 27.3 ± 6.3%
[2]; [5]
  inhibition in vivo at 3 mg/kg: 33.1 ± 4.8%
[2]; [6]
  inhibition in vivo at 10 mg/kg: 39.7 ± 5.1%

## COc1ccc2c(c1)c(CC(=O)O)c(C)n2C(=O)c1ccc(Cl)cc1 [Indomethacin, reference compound]
[1]; 1 h
  ED50: 0.21 mg/kg
Toxicity test (LD50)
  LD50 at 168 h: 17.3 mg/kg
Digestive organs
  troubles in the digestive organs: fairly heavy troubles in the digestive organs
[2]; 3 h
  inhibition in vivo at 1 mg/kg: 15.9 ± 6.2%
  inhibition in vivo at 3 mg/kg: 29.8 ± 5.7%
  inhibition in vivo at 10 mg/kg: 40.6 ± 5.1%

## CN(C)c1ccc(-c2nccc3c(CC(=O)O)cccc23)cc1 [D, 1-(4-dimethylaminophenyl)isoquinoline-5-acetic acid]
Stomach mucosal membrane; 10 mg/kg
  Gastric ulceration: bleeding at the mucosal membrane: 0/6
  Gastric ulceration: damage beneath the mucosal membrane: 0/6
Stomach mucosal membrane; 30 mg/kg
  Gastric ulceration: bleeding at the mucosal membrane: 3/6
  Gastric ulceration: damage beneath the mucosal membrane: 3/6
[1]; [3]
  ED50: 0.11 mg/kg
Toxicity test (LD50)
  LD50 at 168 h: > 300 mg/kg
[2]; [4]
  inhibition in vivo at 1 mg/kg: 16.3 ± 7.1%
[2]; [5]
  inhibition in vivo at 3 mg/kg: 34.2 ± 5.6%
[2]; [6]
  inhibition in vivo at 10 mg/kg: 42.1 ± 5.3%

## O=C(O)Cc1cccc2c(-c3ccc(F)cc3)nccc12 [C, 1-(4-fluorophenyl)isoquinoline-5-acetic acid]
[1]; [3]
  ED50: 8.8 mg/kg
Toxicity test (LD50)
  LD50 at 168 h: > 300 mg/kg
[2]; [4]
  inhibition in vivo at 1 mg/kg: 25.6 ± 3.4%
[2]; [5]
  inhibition in vivo at 3 mg/kg: 28.3 ± 5.8%
[2]; [6]
  inhibition in vivo at 10 mg/kg: 36.5 ± 4%

## O=C(O)Cc1cccc2c(-c3ccc(Br)cc3)nccc12 [B, 1-(4-bromophenyl)isoquinoline-5-acetic acid]
Stomach mucosal membrane; 10 mg/kg
  Gastric ulceration: bleeding at the mucosal membrane: 0/5
  Gastric ulceration: damage beneath the mucosal membrane: 0/5
Stomach mucosal membrane; 30 mg/kg
  Gastric ulceration: bleeding at the mucosal membrane: 2/5
  Gastric ulceration: damage beneath the mucosal membrane: 4/5
[1]; [3]
  ED50: 1 mg/kg
Toxicity test (LD50)
  LD50 at 168 h: 182 mg/kg
[2]; 0.3 mg/kg, p.o., 1 h before carrageenin, measured 3 h later
  inhibition in vivo at 0.3 mg/kg: 26.8 ± 5.3%
[2]; [4]
  inhibition in vivo at 1 mg/kg: 33.7 ± 6.1%
[2]; [5]
  inhibition in vivo at 3 mg/kg: 48.2 ± 4.4%

## O=C(O)Cc1cccc2c(-c3ccccc3)nccc12 [H, 1-phenylisoquinoline-5-acetic acid]
Stomach mucosal membrane; 10 mg/kg
  Gastric ulceration: bleeding at the mucosal membrane: 1/15
  Gastric ulceration: damage beneath the mucosal membrane: 1/15
Stomach mucosal membrane; 30 mg/kg
  Gastric ulceration: bleeding at the mucosal membrane: 4/20
  Gastric ulceration: damage beneath the mucosal membrane: 2/20
[1]; [3]
  ED50: 4.1 mg/kg
Toxicity test (LD50)
  LD50 at 168 h: > 300 mg/kg
[2]; [5]
  inhibition in vivo at 3 mg/kg: 21.8 ± 4.5%
[2]; [6]
  inhibition in vivo at 10 mg/kg: 31 ± 5.2%
[2]; [7]
  inhibition in vivo at 30 mg/kg: 46.4 ± 7.7%

## COc1ccc(-c2nccc3c(CC(=O)O)cccc23)cc1 [G, 1-(4-methoxyphenyl)isoquinoline-5-acetic acid]
Stomach mucosal membrane; 30 mg/kg
  Gastric ulceration: bleeding at the mucosal membrane: 0/5
  Gastric ulceration: damage beneath the mucosal membrane: 0/5
[1]; [3]
  ED50: 9.2 mg/kg
Toxicity test (LD50)
  LD50 at 168 h: > 300 mg/kg
[2]; [4]
  inhibition in vivo at 1 mg/kg: 13.1 ± 9.1%
[2]; [5]
  inhibition in vivo at 3 mg/kg: 32.3 ± 6.3%
[2]; [6]
  inhibition in vivo at 10 mg/kg: 41.2 ± 7.2%

## CC(C)Cc1nccc2c(CC(=O)O)cccc12 [O, 1-isobutylisoquinoline-5-acetic acid]
[2]; [5]
  inhibition in vivo at 3 mg/kg: 21.2 ± 7.8%
[2]; [6]
  inhibition in vivo at 10 mg/kg: 30.3 ± 5.6%
[2]; [7]
  inhibition in vivo at 30 mg/kg: 42.8 ± 8.8%

## Cc1ccc(-c2nccc3c(CC(=O)O)cccc23)cc1 [Compound E, 1-(4-methylphenyl)isoquinoline-5-acetic acid]
Stomach mucosal membrane; 10 mg/kg
  Gastric ulceration: bleeding at the mucosal membrane: 0/5
  Gastric ulceration: damage beneath the mucosal membrane: 0/5
Stomach mucosal membrane; 30 mg/kg
  Gastric ulceration: bleeding at the mucosal membrane: 0/5
  Gastric ulceration: damage beneath the mucosal membrane: 4/5
[1]; [3]
  ED50: 4.3 mg/kg
Toxicity test (LD50)
  LD50 at 168 h: > 300 mg/kg
[2]; [5]
  inhibition in vivo at 3 mg/kg: 26.9 ± 5.2%
[2]; [6]
  inhibition in vivo at 10 mg/kg: 49.5 ± 5.1%

## O=C(O)Cc1cccc2c(C3CCCCC3)nccc12 [Compound L, 1-cyclohexylisoquinoline-5-acetic acid]
Stomach mucosal membrane; 10 mg/kg
  Gastric ulceration: bleeding at the mucosal membrane: 0/5
  Gastric ulceration: damage beneath the mucosal membrane: 0/5
Stomach mucosal membrane; 30 mg/kg
  Gastric ulceration: bleeding at the mucosal membrane: 3/5
  Gastric ulceration: damage beneath the mucosal membrane: 3/5
[1]; [3]
  ED50: 8.5 mg/kg
Toxicity test (LD50)
  LD50 at 168 h: > 300 mg/kg
[2]; [4]
  inhibition in vivo at 1 mg/kg: 9.7 ± 2%
[2]; [5]
  inhibition in vivo at 3 mg/kg: 17.4 ± 5.2%
[2]; [6]
  inhibition in vivo at 10 mg/kg: 43.1 ± 4.3%

## CCC(C)c1nccc2c(CC(=O)O)cccc12 (centres unmarked) [P, 1-sec-butylisoquinoline-5-acetic acid]
[2]; [5]
  inhibition in vivo at 3 mg/kg: 15.9 ± 10.4%
[2]; [6]
  inhibition in vivo at 10 mg/kg: 39.6 ± 7%

## O=C(O)Cc1cccc2c(C3CCCC3)nccc12 [N, 1-cyclopentylisoquinoline-5-acetic acid]
[2]; [5]
  inhibition in vivo at 3 mg/kg: 21.9 ± 8.1%
[2]; [6]
  inhibition in vivo at 10 mg/kg: 24.8 ± 4.9%

## CCOC(=O)Cc1cccc2c(-c3ccccc3)nccc12 [J, ethyl-1-phenylisoquinoline-5-acetate]
[2]; [6]
  inhibition in vivo at 10 mg/kg: 23.2 ± 6.1%
[2]; [7]
  inhibition in vivo at 30 mg/kg: 41.1 ± 4.8%

## CC(C)c1nccc2c(CC(=O)O)cccc12 [M, 1-isopropylisoquinoline-5-acetic acid]
[1]; [3]
  ED50: 3.5 mg/kg
Toxicity test (LD50)
  LD50 at 168 h: 250 mg/kg
[2]; [4]
  inhibition in vivo at 1 mg/kg: 19.3 ± 2.6%
[2]; [5]
  inhibition in vivo at 3 mg/kg: 38.6 ± 3.2%
[2]; [6]
  inhibition in vivo at 10 mg/kg: 62.9 ± 5.9%

## NC(=O)Cc1cccc2c(-c3ccccc3)nccc12 [K, 1-phenylisoquinoline-5-acetamide]
[2]; [6]
  inhibition in vivo at 10 mg/kg: 9 ± 6.4%
[2]; [7]
  inhibition in vivo at 30 mg/kg: 39.7 ± 5.8%

## O=C(O)Cc1cccc2c(-c3ccc(C(F)(F)F)cc3)nccc12 [I, 1-(4-trifluoromethylphenyl)isoquinoline-5-acetic acid]
[2]; [5]
  inhibition in vivo at 3 mg/kg: 17 ± 4.5%
[2]; [6]
  inhibition in vivo at 10 mg/kg: 24.5 ± 7.1%
[2]; [7]
  inhibition in vivo at 30 mg/kg: 30.2 ± 5.3%
